Results on one compound are retold here after patent US20170165317A1, “METHOD FOR MITIGATING OR ALLEVIATING SYNAPTIC AND COGNITIVE DEFICITS” (Trustees of Dartmouth College, priority 2013, published 2017).

In one assay the test system is CA1 hippocampal region. Put plainly: LTP of fEPSPs in CA1 of acute hippocampal slices exposed to protofibrillar Aβ42. It counts as cell-based, mice. The note with it: 50 nM VO-OHpic 1 hour before addition of 1 μM Aβ42. The procedure:
(§1) Mice were anesthetized with sodium pentothal (20 mg/kg ip) and decapitated. The brain was rapidly removed to ice-cold, oxygenated, dissection solution. Coronal slices (300 μm) were made with a vibratome (LEICA VT1200S) and slices were moved to a recovery chamber containing aCSF at room temperature for at least 1.5 hour before recording.
A concentric bipolar platinum-iridium stimulation electrode and a low-resistance glass recording microelectrode filled with aCSF (3-4 MΩ resistance) were placed in CA1 stratum radiatum to record the extracellular field excitatory postsynaptic potentials (fEPSPs). For each slice, an input-output curve was recorded to compare basal synaptic transmission at different conditions. This curve was also used to set the baseline fEPSP at ≈30% (for LTP experiments) or ≈50% (for LTD experiments) of maximal slope. Baseline stimulation was delivered every 15 seconds (0.01 ms duration pulses) for at least 20 minutes before beginning the experiment to ensure stability of the response. LTP was induced by using θ-burst stimulation (4 pulses at 100 Hz, with the bursts repeated at 5 Hz and each tetanus including three 10-burst trains separated by 15 seconds). LTD was induced using 900 pulses at 1 Hz. Responses were recorded for 1 hour after induction of LTP or LTD. […]

The next assay relates to APP/PS1 mice. Put plainly: Hippocampal APP, C-terminal fragments, Aβ monomers and SDS-resistant Aβ assemblies after in vivo treatment (western blot, ELISA). On the set-up: species or system mouse. To be noted: after VO-OHpic treatment, end of last behavioural test. The protocol:
Hippocampal slices overexpressing Aβ were maintained for 3 days after virus injection with or without the PTEN inhibitor VO-OHpic, before culture medium was collected for measurements. Aβ40 and Aβ42 level were determined in solubilized hippocampal fractions, cultured hippocampal slices or conditioned media by ELISA according to the manufacturer's instructions (WAKO/Invitrogen) that specifically detect the C-terminus of Aβ40 and Aβ42, respectively.
Hippocampi from APP/PS1 mice or their wild-type littermates and organotypic hippocampal slices infected with APPswe/lnd-EGFP/APPwt-EGFP/APPMV-EGFP were solubilized, and extracts were prepared for western blot analysis. Mouse brains or brain sections were homogenized on ice in RIPA buffer (1% TRITON X-100, 1% sodium deoxycholate, 0.1% SDS, 150 mM NaCl, 50 mM Tris-HCl, pH 7.2), using an ULTRATURRAX T25 (Janke & Kunkel). Samples were centrifuged at 15,000×g, and supernatants were used for protein determination. APPsα was detected in conditioned media of the respective slices using antibody 6E10 that selectively detects human APPsα. Levels of APP, CTFα and CTFβ were detected in lysates of the infected slices using APPCt antibody.
After the end of the last test, the levels of APP and its C-terminal fragments (western blot), Aβ monomers (ELISA), and SDS-resistant. Aβ assemblies (SDS-PAE) were measured from the hippocampus of each mouse. […]

In assay [1] the test system is hippocampal CA3 and CA1 cells from acute slices. Put plainly: fEPSP input-output curve (basal synaptic transmission) in acute hippocampal slices exposed to protofibrillar Aβ42. The format is cell-based, mice. The procedure: as §1
A concentric bipolar platinum-iridium stimulation electrode and a low-resistance glass recording microelectrode filled with aCSF (3-4 MΩ resistance) were placed in CA1 stratum radiatum to record the extracellular field excitatory postsynaptic potentials (fEPSPs). For each slice, an input-output curve was recorded to compare basal synaptic transmission at different conditions. This curve was also used to set the baseline fEPSP at ≈30% (for LTP experiments) or ≈50% (for LTD experiments) of maximal slope. Baseline stimulation was delivered every 15 seconds (0.01 ms duration pulses) for at least 20 minutes before beginning the experiment to ensure stability of the response. LTP was induced by using θ-burst stimulation (4 pulses at 100 Hz, with the bursts repeated at 5 Hz and each tetanus including three 10-burst trains separated by 15 seconds). LTD was induced using 900 pulses at 1 Hz. Responses were recorded for 1 hour after induction of LTP or LTD.
Dissection solution (employed for slicing) composition: 10 mM D-glucose, 4 mM KCl, 26 mM NaHCO3, 233.7 mM sucrose, 5 mM MgCl2, 1:1000 Phenol Red. Artificial CSF (employed for recovery and recording) composition: 119 mM NaCl, 2.5 mM KCl, 1 mM NaH2PO4, 11 mM glucose, 1.2 mM MgCl2, 2.5 mM CaCl2. Osmolarity was adjusted to […].
For the first approach, protofibrillar Aβ was prepared by promoting aggregation under high-salt conditions (258 μM Aβ42, room temperature incubation (Jan, et al. (2010) Nat. Protoc. 5:1186-1209). The kinetics of Aβ42 aggregation were followed by thioflavin T fluorescence and SDS-PAGE western blot analysis with the N-terminal anti-Aβ antibody 6E10. Also, the heterogeneous nature of these Aβ42 assemblies was evidenced by electron microscopy. Synaptic function was assessed by electrophysiological recordings of field excitatory postsynaptic potential (fEPSPs) between hippocampal CA3 and CA1 cells from acute slices prepared from 5-month-old mice. The results indicated a ≈60% decrease in the magnitude of synaptic transmission (input-output curve) when slices were incubated for 2 hours in aCSF containing pathogenic protofibrillar Aβ42 species (1 μM). This decrease in the basal synaptic transmission was prevented when Aβ was added to slices that were preincubated with the PTEN inhibitor (50 nM VO-OHpic) for 1 hour (VO-OHpic and Aβ were also present in the perfusion solution during electrophysiological recordings). VO-OHpic alone had no effect on basal synaptic transmission. […] The potency and specificity of this inhibitor have been documented previously (Rosivatz, et al. (2006) ACS Chem. Biol. 1:780-790).
The effect of these peptides on Aβ-treated neurons was subsequently tested.

Consider `O=C(O)c1ncccc1O.O=C(O)c1ncccc1O.[O]=[V][O-]` [VO-OHpic], for which, in the assay with CA1 hippocampal region, the “LTP expression in presence of Aβ42” value is “rescued the expression of LTP”. Moreover, in the assay with APP/PS1 mice, the “levels of APP and its C-terminal fragments, Aβ monomers and SDS-resistant Aβ assemblies in hippocampus” value is listed as “No changes were detected”. Also, the “Aβ42-induced decrease in basal synaptic transmission” value in assay [1] (50 nM VO-OHpic preincubated 1 hour, then 1 μM protofibrillar Aβ42 for 2 hours) was “prevented”. Besides, the “basal synaptic transmission, inhibitor alone” value in assay [1] (VO-OHpic alone, no Aβ) is reported as “no effect”.
